“Also recorded” adds a separate entry of the source.
Tests used:
[1] = test system: PDF1.2 and PR-1 gene expression; test: Spraying of four-week-old soil-grown plants, qRT-PCR of PDF1.2 and PR-1; type: in vivo, Arabidopsis thaliana
From the text: […]1 and […]2 mutants are unable to respond to AtPEP1. To further examine the importance of […]1 and […]2 in AtPep1 signaling, the expression level of WRKY transcription factor genes, WRKY22, WRKY29, WRKY33. WRKY53 and WRKY55, were monitored by qRT-PCR after supplying AtPep1 to wild type Arabidopsis and T-DNA insertional mutants of […]1 and […]2. These WRKY genes were reported to be induced by the fungal PAMP, chitin (Wan et al., Plant Cell 20: 471-481, 2008), and the bacterial PAMPs, […] et al., Cell 125:749-760, 2006). […] In the double mutants, […] […] We also examined the effect of supplying AtPep1 to the double mutants on the expression of the antimicrobial protein genes, defensin (PDF1.2) and pathogenesis related protein (PR-1) […] peptides are known to induced these genes (Huffaker and Ryan, Proc. Natl. Acad. Sci. USA 104: 10732-10736, 2007). Since the expression levels of PDF1.2 and PR-1 gene in Arabidopsis seedlings grown in liquid medium were already high, the method of supplying AtPep1 was changed. Four-week-old Arabidopsis plants grown in soil were sprayed with 1 μM AtPep1 in 0.01% Silwet L-77, and subjected to qRT-PCR analysis after 6 hours.

[2] = test system: Arabidopsis suspension cultured cells; test: Alkalinization assay with Arabidopsis suspension cultured cells; type: cell-based, Arabidopsis thaliana; details: Arabidopsis suspension cultured cells, pH of media after 20 min
Procedure: For the alkalinization assay, cells suspensions are grown in a volume of 40 ml in a 125 ml flask. Tobacco and Arabidopsis cells are typically grown for 3-5 days before use. Tomato cells are typically grown for 4-7 days before use. Soybean cells are generally grown for 3-7 days before use. Preferably, cells are in mid to log or log phase when they are to be used for the alkalinization assay. A 1 ml pipette tip with the end cut off (to prevent clogging of the tip with the cells) is used to aliquot 1 ml of the cells from the suspension into a well in a 24-well culture cluster plate. The flask is swirled between aliquots to ensure that the cells remain evenly dispersed throughout the cell suspension and an roughly equivalent number of cells is provided to each well. The plate(s) are then shaken at 160 rpm for 1 hour. Small aliquots ([…]) of extracted peptide fractions are then added to the wells. After 20 min, the pH of the cell media is measured and recorded.
Alkalinization Assay. Arabidopsis suspension cells were grown with shaking in the dark in 125 mL flasks, using 40 mL NT media as previously described (Pearce et al. Proc. Natl. Acad. Sci. USA 98:12843-12847, 2001). The cells were transferred weekly (2.5 mL) and used for assays 3-5 days after transfer. One mL aliquots of cells were transferred to wells of 24-well culture plates and allowed to equilibrate for one hour while agitated on a rotary shaker at 160 rpm. Aliquots of 1-10 μL from extracts or fractions eluted from HPLC columns were added to cells and the pH of the media was monitored after 20 min.
Alkalinization assay. Medium alkalinization activity of Arabidopsis suspension cultured cells by AtPep1 analogs was analyzed as previously described for systemin (Pearce et al., Science 253:895-897, 1991), RALF (Pearce et al. Proc. Natl. Acad. Sci. USA 98:12843-12847, 2001), HypSys peptides (Pearce and Ryan. J. Biol. Chem. 278:30044-30050, 2003; Pearce et al., Nature 411:817-820, 2001), and AtPep1 (supra). The alkalinization activity of azido-Cys-AtPep1 were carried out after incubation the analog with cells in darkness for 10 min, when the pH was recorded.
Analogs of AtPep1 from the C-terminus of AtPep1 were synthesized and assayed in the alkalinization assay. One mL aliquots of 4 day old Arabidopsis cells were allowed to equilibrate on an orbital shaker at 180 rpm for one hour. A 10 μL aliquot of each peptide solution was added to the cells. Peptide concentrations of 0.25 nM, 2.5 nM, and 25 nM were tested. After 20 min, the pH of the media was recorded.
The 15-mer from the carboxy-terminus of AtPep1 ([…] (SEQ ID NO: 78)) was substituted with alanine at each position to assess which amino acids were necessary for the alkalinizing activity. […] The set of substituted 15-mer peptides was assayed using four-day-old Arabidopsis cells. […] of each peptide (2.5 pmoles) was added to 1 ml of cells to make a final concentration of 2.5 nM. After 20 min, the pH of the media was recorded. The data is the average of three separate experiments.

[3] = sprayed 1 μM in 0.01% Silwet L-77, 6 hours, wild type

## H-ATKVKAKQRGKEKVSSGRPGQHN-OH [AtPep1]
[1]; [3]
  induction of PDF1.2: 30 fold
  induction of PR-1: 60 fold
[1]; sprayed 1 μM, 6 hours
  induction of PDF1.2 and PR-1 in the double mutants: not induced
[2]
  activity in the alkalinization assay: at sub-nanomolar concentrations, to cause an alkalinization response; also recorded: as active as the native AtPep1; also recorded: identical activities as the native peptides
[2]; read-out: half-maximal activity in the alkalinization assay
  EC50: 0.25 nM

— US8686224B2, “Plant defense signal peptides” (priority 2005, dated 2014)
